Test results published in patent US7960339B2, “Antimicrobial peptides” (Österreichische Akademie der Wissenschaften, priority 2006, dated 2011).
Peptide text beside a SMILES is read from it. * marks the point of attachment. Dicyclohexylacetyl = O=C(C(C1CCCCC1)C1CCCCC1)*; Butanoyl(2,2-Me2) = CCC(C)(C)C(=O)*; Octanoyl(6-Me) = CCC(C)CCCCC(=O)*; Octanoyl = CCCCCCCC(=O)*; X1 = CCCCC(CC)C(=O)*

Tested on: C. neoformans ATCC 32045
Assay type: cell-based
Settings: ATCC 32045, 72 h
Procedure: C. neoformans ATCC 32045 cultures were maintained on yeast medium (YM; Difco Laboratories, Detroit, Mich.) agar plates at 4° C. Prior to the assay, the cultures were grown on agar plates and incubated for 72 hrs at 26° C. Two colonies of these newly grown fungal cultures were then inoculated in 5 ml of 2×YM broth, vortexed, and diluted 10-fold in 2×YM broth, for an approximate final assay concentration of 1×105 to 5×10^5 CFU/ml. In 96-well tissue culture plates, fungal suspensions in 2×YM broth were added to the peptides dispensed at concentrations ranging from 1 mg/ml to 1 μg/ml derived from serial twofold dilutions in sterile water. The plates were then incubated for 72 hrs at 26° C. The relative percent growth of the fungi found for each test sample was determined by the optical density at 620 nm (OD620) by using a Titertek Multiskan Plus apparatus. […] The IC50 were calculated by using a sigmoidal curve-fitting software program (Graphpad Prism; ISI Software, San Diego, Calif.).

Row | SMILES | average IC50 [µg/mL] | average MIC [µg/mL]
1 | CCC(C)CCCCC(=O)N[C@@H](Cc1ccccc1)C(=O)N[C@@H](Cc1c[nH]c2ccccc12)C(=O)N[C@@H](CCCNC(=N)N)C(=O)N[C@H](C(=O)N[C@@H](CCCNC(=N)N)C(=O)N[C@H](C(=O)N[C@@H](CCCNC(=N)N)C(=O)N[C@@H](CCCNC(=N)N)C(N)=O)[C@@H](C)CC)[C@@H](C)CC (some centres unmarked) [VS1-58, 6-methyloctanoyl FWRIRIRR-NH2] ({Octanoyl(6-Me)}-FWRIRIRR-NH2) | 6 | 16
2 | N=C(N)NCCC[C@H](NC(=O)[C@H](CCCNC(=N)N)NC(=O)[C@H](Cc1c[nH]c2ccccc12)NC(=O)[C@H](Cc1ccccc1)NC(=O)[C@H](Cc1c[nH]c2ccccc12)NC(=O)[C@H](CCCNC(=N)N)NC(=O)[C@@H](N)CCCNC(=N)N)C(=O)O [VS1-39, RRWFWRR-OH] (H-RRWFWRR-OH; N-terminus assumed) | 6 | 32
3 | CC[C@H](C)[C@H](NC(=O)[C@H](CCCNC(=N)N)NC(=O)[C@H](Cc1c[nH]c2ccccc12)NC(=O)[C@@H](N)Cc1ccccc1)C(=O)N[C@@H](CCCNC(=N)N)C(=O)N[C@@H](CCCCN)C(=O)N[C@@H](Cc1c[nH]c2ccccc12)C(=O)N[C@@H](CCCNC(=N)N)C(N)=O [VS1-21, FWRIRKWR-NH2] (H-FWRIRKWR-NH2; N-terminus assumed) | 4 | 16
4 | CC(C)C[C@H](NC(=O)[C@H](CCCNC(=N)N)NC(=O)[C@H](CCCCN)NC(=O)[C@H](CCCNC(=N)N)NC(=O)[C@H](Cc1c[nH]c2ccccc12)NC(=O)[C@H](Cc1ccccc1)NC(=O)[C@@H]1CCCN1)C(=O)N[C@@H](CCCNC(=N)N)C(=O)N[C@@H](CCCNC(=N)N)C(N)=O [VS1-29, PFWRKRLRR-NH2] (H-PFWRKRLRR-NH2; N-terminus assumed) | 9 | 32
5 | CCCCCCCC(=O)N[C@@H](Cc1ccccc1)C(=O)N[C@@H](Cc1c[nH]c2ccccc12)C(=O)N[C@@H](CCCNC(=N)N)C(=O)N[C@@H](CCCNC(=N)N)C(=O)N[C@@H](Cc1ccccc1)C(=O)N[C@@H](Cc1c[nH]c2ccccc12)C(=O)N[C@@H](CCCNC(=N)N)C(=O)N[C@@H](CCCNC(=N)N)C(N)=O [VS1-60, octanoyl FWRRFWRR-NH2] (Octanoyl-FWRRFWRR-NH2) | 10 | 32
6 | CC[C@H](C)[C@H](NC(=O)[C@H](CCCNC(=N)N)NC(=O)[C@H](C)NC(=O)[C@H](CCCNC(=N)N)NC(=O)[C@H](Cc1c[nH]c2ccccc12)NC(=O)[C@H](Cc1ccccc1)NC(=O)[C@@H]1CCCN1)C(=O)N[C@@H](CCCNC(=N)N)C(=O)N[C@@H](CCCNC(=N)N)C(N)=O [VS1-27, PFWRARIRR-NH2] (H-PFWRARIRR-NH2; N-terminus assumed) | 8 | 32
7 | CCCCC(CC)C(=O)N[C@@H](CCCNC(=N)N)C(=O)N[C@@H](Cc1c[nH]c2ccccc12)C(=O)N[C@@H](CCCCN)C(=O)N[C@@H](CCCNC(=N)N)C(=O)N[C@H](C(=O)N[C@@H](CC(N)=O)C(=O)N[C@@H](CCCNC(=N)N)C(=O)N[C@@H](CCC(N)=O)C(=O)N[C@@H](Cc1c[nH]c2ccccc12)C(=O)N[C@@H](Cc1ccccc1)C(N)=O)[C@@H](C)CC (some centres unmarked) [VS1-46, 2-ethylhexanoyl RWKRINRQWF-NH2] (X1-RWKRINRQWF-NH2) | 4 | 8
8 | CCC(C)CCCCC(=O)N[C@@H](Cc1ccccc1)C(=O)N[C@@H](Cc1c[nH]c2ccccc12)C(=O)N[C@@H](CCC(N)=O)C(=O)N[C@@H](CCCNC(=N)N)C(=O)N[C@@H](CC(N)=O)C(=O)N[C@H](C(=O)N[C@@H](CCCNC(=N)N)C(=O)N[C@@H](CCCCN)C(=O)N[C@@H](Cc1c[nH]c2ccccc12)C(=O)N[C@@H](CCCNC(=N)N)C(N)=O)[C@@H](C)CC (some centres unmarked) [VS1-43, 6-methyloctanoyl FWQRNIRKWR-NH2] ({Octanoyl(6-Me)}-FWQRNIRKWR-NH2) | 6 | 16
9 | CC[C@H](C)[C@H](NC(=O)[C@H](CCCNC(=N)N)NC(=O)[C@H](CCCCN)NC(=O)[C@H](CCCNC(=N)N)NC(=O)[C@H](Cc1c[nH]c2ccccc12)NC(=O)[C@H](Cc1ccccc1)NC(=O)[C@@H]1CCCN1)C(=O)N[C@@H](CCCNC(=N)N)C(=O)N[C@@H](CCCNC(=N)N)C(N)=O [VS1-28, PFWRKRIRR-NH2] (H-PFWRKRIRR-NH2; N-terminus assumed) | 8 | 32
10 | CC[C@H](C)[C@H](NC(=O)[C@H](CC(N)=O)NC(=O)[C@H](CCCNC(=N)N)NC(=O)[C@H](CCC(N)=O)NC(=O)[C@H](Cc1c[nH]c2ccccc12)NC(=O)[C@H](Cc1ccccc1)NC(=O)[C@@H]1CCCN1)C(=O)N[C@@H](CCCNC(=N)N)C(=O)N[C@@H](CCCCN)C(=O)N[C@@H](Cc1c[nH]c2ccccc12)C(=O)N[C@@H](CCCNC(=N)N)C(N)=O [VS1-19, PFWQRNIRKWR-NH2] (H-PFWQRNIRKWR-NH2; N-terminus assumed) | 3 | 8
11 | CC[C@H](C)[C@H](NC(=O)[C@H](CCCNC(=N)N)NC(=O)[C@H](CCCCN)NC(=O)[C@H](Cc1c[nH]c2ccccc12)NC(=O)[C@H](CCCNC(=N)N)NC(=O)C(C)(C)CC)C(=O)N[C@@H](CC(N)=O)C(=O)N[C@@H](CCCNC(=N)N)C(=O)N[C@@H](CCC(N)=O)C(=O)N[C@@H](Cc1c[nH]c2ccccc12)C(=O)N[C@@H](Cc1ccccc1)C(N)=O [VS1-47, 2,2-dimethylbutanoyl RWKRINRQWF-NH2] ({Butanoyl(2,2-Me2)}-RWKRINRQWF-NH2) | 8 | 16
12 | CC[C@H](C)[C@H](NC(=O)[C@H](CCCNC(=N)N)NC(=O)[C@@H](NC(=O)[C@H](CCCNC(=N)N)NC(=O)[C@H](Cc1c[nH]c2ccccc12)NC(=O)[C@H](Cc1ccccc1)NC(=O)C(C)(C)CC)[C@@H](C)CC)C(=O)N[C@@H](CCCNC(=N)N)C(=O)N[C@@H](CCCNC(=N)N)C(N)=O [VS1-57, 2,2-dimethylbutanoyl FWRIRIRR-NH2] ({Butanoyl(2,2-Me2)}-FWRIRIRR-NH2) | 2 | 4
13 | CC[C@H](C)[C@H](NC(=O)[C@H](CC(N)=O)NC(=O)[C@H](CCCNC(=N)N)NC(=O)[C@H](CCC(N)=O)NC(=O)[C@H](Cc1c[nH]c2ccccc12)NC(=O)[C@H](Cc1ccccc1)NC(=O)C(C1CCCCC1)C1CCCCC1)C(=O)N[C@@H](CCCNC(=N)N)C(=O)N[C@@H](CCCCN)C(=O)N[C@@H](Cc1c[nH]c2ccccc12)C(=O)N[C@@H](CCCNC(=N)N)C(N)=O [VS1-44, dicyclohexylacetyl FWQRNIRKWR-NH2] (Dicyclohexylacetyl-FWQRNIRKWR-NH2) | 4 | 16
14 | CCCCCCCC(=O)N[C@@H](CCCNC(=N)N)C(=O)N[C@@H](Cc1c[nH]c2ccccc12)C(=O)N[C@@H](CCCCN)C(=O)N[C@@H](CCCNC(=N)N)C(=O)N[C@H](C(=O)N[C@@H](CC(N)=O)C(=O)N[C@@H](CCCNC(=N)N)C(=O)N[C@@H](CCC(N)=O)C(=O)N[C@@H](Cc1c[nH]c2ccccc12)C(=O)N[C@@H](Cc1ccccc1)C(N)=O)[C@@H](C)CC [VS1-45, octanoyl RWKRINRQWF-NH2] (Octanoyl-RWKRINRQWF-NH2) | 2 | 4
15 | CC(C)C[C@H](NC(=O)[C@H](CCCCN)NC(=O)[C@H](CCCCN)NC(=O)[C@H](CCCNC(=N)N)NC(=O)[C@H](Cc1c[nH]c2ccccc12)NC(=O)[C@H](Cc1ccccc1)NC(=O)[C@@H]1CCCN1)C(=O)N[C@@H](CCCCN)C(=O)N[C@@H](CCCNC(=N)N)C(N)=O [VS1-30, PFWRKKLKR-NH2] (H-PFWRKKLKR-NH2; N-terminus assumed) | 10 | 32
16 | N=C(N)NCCC[C@H](NC(=O)[C@H](CCCNC(=N)N)NC(=O)[C@H](Cc1c[nH]c2ccccc12)NC(=O)[C@H](Cc1ccccc1)NC(=O)[C@H](CCCNC(=N)N)NC(=O)[C@H](CCCNC(=N)N)NC(=O)[C@H](Cc1c[nH]c2ccccc12)NC(=O)[C@H](Cc1ccccc1)NC(=O)C(C1CCCCC1)C1CCCCC1)C(N)=O [VS1-64, dicyclohexylacetyl FWRRFWRR-NH2] (Dicyclohexylacetyl-FWRRFWRR-NH2) | 6 | 32
17 | CCC(C)(C)C(=O)N[C@@H](Cc1ccccc1)C(=O)N[C@@H](Cc1c[nH]c2ccccc12)C(=O)N[C@@H](CCCNC(=N)N)C(=O)N[C@@H](CCCNC(=N)N)C(=O)N[C@@H](Cc1ccccc1)C(=O)N[C@@H](Cc1c[nH]c2ccccc12)C(=O)N[C@@H](CCCNC(=N)N)C(=O)N[C@@H](CCCNC(=N)N)C(N)=O [VS1-62, 2,2-dimethylbutanoyl FWRRFWRR-NH2] ({Butanoyl(2,2-Me2)}-FWRRFWRR-NH2) | 4 | 16
18 | N=C(N)NCCC[C@H](NC(=O)[C@H](CCCNC(=N)N)NC(=O)[C@H](Cc1c[nH]c2ccccc12)NC(=O)[C@H](CCCNC(=N)N)NC(=O)[C@H](CCCNC(=N)N)NC(=O)[C@H](CCCNC(=N)N)NC(=O)[C@H](Cc1c[nH]c2ccccc12)NC(=O)[C@H](Cc1ccccc1)NC(=O)[C@@H]1CCCN1)C(N)=O [VS1-33, PFWRRRWRR-NH2] (H-PFWRRRWRR-NH2; N-terminus assumed) | 9 | 32
19 | CC[C@H](C)[C@H](NC(=O)[C@H](CCCNC(=N)N)NC(=O)[C@@H](NC(=O)[C@H](CCCNC(=N)N)NC(=O)[C@H](Cc1c[nH]c2ccccc12)NC(=O)[C@H](Cc1ccccc1)NC(=O)[C@@H]1CCCN1)[C@@H](C)CC)C(=O)N[C@@H](CCCNC(=N)N)C(=O)N[C@@H](CCCNC(=N)N)C(=O)N[C@@H](CC(=O)O)C(N)=O [VS1-23, PFWRIRIRRD-NH2] (H-PFWRIRIRRD-NH2; N-terminus assumed) | 4 | 8
